# Experimental data reported in patent US7947854B2, “Bis-cationic compounds and use thereof” (The University of Sydney, priority 2003, dated 2011).
# Where two headings read alike, the source gives them in different places.
# Experiments:
# T. mentagrophytes = experiment: Susceptibility of dermatophytes, broth microdilution NCCLS M38-P; type: cell-based; details: 100% growth inhibition, 28° C.; for MIC: Trichophyton mentagrophytes
# Description: (§1) Isolates were tested using the method described in the National Committee for Clinical Laboratory Standards (NCCLS) document M38-P for filamentous fungi, with dermatophyte specific modifications described by Fernández-Torres et al, Current topics in Medical Mycology, 14-19 Feb. 1999.
# (§2) Five dermatophyte isolates were, namely; T. rubrum, T. mentagrophytes, T. tonsurans, M. canis and M. gypseum, all of which produce lipases and some, phospholipase. These isolates were tested by the broth microdilution method according to NCCLS document M38-P, for activity against selected antifungal agents. In addition, ten randomly selected isolates of T. tonsurans were also tested. All isolates were maintained on SDA at 28° C. Candida parapsilosis (ATCC 20019) was used as the reference control is organism.
# (§3) The microdilution plates used were a single lot of RPMI 1640 basal medium (JRH bioScience Inc. Lenexa, Kans., USA) with L-glutamine and without sodium bicarbonate, buffered to pH 7.0, at 25° C., with 0.165 M (MOPS) morpholinepropanesulfonic acid (Sigma).
# (§4) Powdered drugs were dissolved in 100% dimethyl sulfoxide (DMSO), at concentrations 100 times higher than the final test concentration. All compounds were prepared in 100% (DMSO). For ITRA and TRB, two-fold drug dilutions were prepared in 100% DMSO at 100 times the final concentration, followed by further dilution 1:50 in RPMI medium, to yield 2× the final strength required for the test.
# (§5) Fungal cultures were subcultured onto Potato Dextrose Agar and grown at 28° C. for 7-10 days. Fungal suspensions were covered with 5 ml of distilled water, and then colonies were scraped off with cotton tipped swabs. The resulting mixture of conidia and hyphae elements was withdrawn, transferred to a sterile tube and then vortexed with glass beads. After the particles settled, the upper homogeneous suspension was collected and its density adjusted by a densitometer to a 0.5 McFarland standard at the wavelength of 530 nm (80-85% transmittance). These stock suspensions were then diluted 1:50 with RPMI medium to obtain final working inoculum concentration ranging from 0.3×10^4 to 9×10^4 CFU/ml. Inoculum quantification was performed by plating 100 μl of the 1:1000 dilution of the adjusted inoculum on SDA plates, incubated at 28° C., and after 7 days of incubation, the colonies were counted.
# (§6) Testing was based on NCCLS M38-P document for testing filamentous moulds. Testing was carried out in sterile 96-well flat bottomed microtitre plate. Columns 1 and 3 to 12 were filled with 100 μl of RPMI medium, leaving column 2 unfilled. Columns 1, 2 and 3 were filled with 100 μl of 2× drug concentration. Serial dilutions were then made by transferring 100 μl from column 3 to each column up to column 11, and 100 μl from column 11 was discarded. Column 12 served as drug free growth control. Finally, 100 μl of inoculum suspension was added to all wells except column 1, which acted as sterility control (Columns 1 and 12 served as sterility and growth control respectively). Plates were incubated at 28° C. for 7 days, and read at 3 days and 7 days of incubation. All testing was performed in duplicate, on three separate occasions.
# (§7) Growth in microtitre trays were read by visual inspection by using an illuminated-reversed mirror. Growth in each well was compared with the “growth control” drug free well. The MIC end point for all the drugs was chosen to be the first well with 100% growth inhibition (i.e. the lowest drug concentration inhibiting growth).
# [1] = test system: ten randomly selected isolates of T. tonsurans; experiment: Susceptibility of ten T. tonsurans isolates, broth microdilution NCCLS M38-P; type: cell-based; details: for MIC: Trichophyton tonsurans
# Description: as §1, §2, §3, §4, §5, §6, §7
smiles,measurement,setting,value
"CCCC[N+](CCCC)(CCCC)CCCCCCCCCCCC[N+](CCCC)(CCCC)CCCC [Compound 3, 1,12-bis(tributylammonium)do-decane dibromide]","MIC Range, T. mentagrophyte",T. mentagrophytes,3.8 µg/mL
same,MIC,"T. mentagrophytes; read-out: MIC GM, T. mentagrophyte",3.8 µg/mL
same,MIC,"T. mentagrophytes; read-out: MIC Mean, T. mentagrophyte",3.8 µg/mL
same,MIC Range,[1]; T. tonsurans 1,1.9 to 3.8 µg/mL
same,MIC Range,[1]; T. tonsurans 2,0.45 to 7.6 µg/mL
same,MIC Range,[1]; T. tonsurans 4,0.45 to 3.8 µg/mL
same,MIC Range,[1]; T. tonsurans 5,0.45 to 7.6 µg/mL
same,MIC Range,[1]; T. tonsurans 6,0.45 to 15.25 µg/mL
same,MIC Range,[1]; T. tonsurans 7,0.45 to 3.8 µg/mL
same,MIC Range,[1]; T. tonsurans 8,0.45 to 3.8 µg/mL
same,MIC Range,[1]; T. tonsurans 9,3.8 to 15.25 µg/mL
same,MIC Range,[1]; T. tonsurans 10,3.8 to 7.6 µg/mL
same,MIC Range,[1]; T.tonsurans 3,0.45 to 3.8 µg/mL
same,MIC,"[1]; T. tonsurans 1, read-out: MIC GM",3.02 µg/mL
same,MIC,"[1]; T. tonsurans 2, read-out: MIC GM",1.15 µg/mL
same,MIC,"[1]; T. tonsurans 2, read-out: MIC Mean",2.83 µg/mL
same,MIC,"[1]; T. tonsurans 4, read-out: MIC GM",1.87 µg/mL
same,MIC,"[1]; T. tonsurans 4, read-out: MIC Mean",2.68 µg/mL
same,MIC,"[1]; T. tonsurans 5, read-out: MIC GM",2.96 µg/mL
same,MIC,"[1]; T. tonsurans 5, read-out: MIC Mean",5.22 µg/mL
same,MIC,"[1]; T. tonsurans 6, read-out: MIC GM",4.32 µg/mL
same,MIC,"[1]; T. tonsurans 6, read-out: MIC Mean",6.94 µg/mL
same,MIC,"[1]; T. tonsurans 7, read-out: MIC GM",1.87 µg/mL
same,MIC,"[1]; T. tonsurans 7, read-out: MIC Mean",2.68 µg/mL
same,MIC,"[1]; T. tonsurans 8, read-out: MIC GM",2.48 µg/mL
same,MIC,"[1]; T. tonsurans 8, read-out: MIC Mean",3.13 µg/mL
same,MIC,"[1]; T. tonsurans 9, read-out: MIC GM",6.04 µg/mL
same,MIC,"[1]; T. tonsurans 9, read-out: MIC Mean",7.61 µg/mL
same,MIC,"[1]; T. tonsurans 10, read-out: MIC GM",4.52 µg/mL
same,MIC,"[1]; T. tonsurans 10, read-out: MIC Mean",4.75 µg/mL
same,MIC,"[1]; T.tonsurans 3, read-out: MIC GM",1.87 µg/mL
same,MIC,"[1]; T.tonsurans 3, read-out: MIC Mean",2.68 µg/mL
same,MIC,"[1]; read-out: MIC Mean, T. tonsurans 1",3.17 µg/mL
